Experimental data as given in patent US20060004185A1, “Peptide antibiotics and peptide intermediates for their prepartion” (priority 2004, published 2006).

Columns and labels:
[1] = tested on: Escherichia coli, ATCC #26; test: MIC, serial twofold broth dilution in Mueller Hinton broth; assay type: cell-based; conditions: Escherichia coli ATCC #26, Mueller Hinton broth
[2] = tested on: Staphylococcus aureus Smith; test: as above; assay type: cell-based
[3] = cited from earlier work

Substance	E. coli MIC [1]	Staph MIC [2]	renal toxicity ([3]; patients, recommended dosing)	overall incidence of neurotoxicity ([3]; human, in vivo)
Polymyxin B [reference compound]	0.6 micrograms per milliliter	> 10 µg/mL	Some renal toxicity was observed	–
colistin	–	–	–	7.3%
